Reference: US20120309706A1, “COMBINED TREATMENT OF PANCREATIC CANCER WITH GEMCITABINE AND MASITINIB” (AB SCIENCE, priority 2010, published 2012)
Read-outs that look alike come from different tables or passages of the source. Marks after values point to notes of the source that are not given here. Each block holds one compound with its values, some of them ahead of it.

Tests used:
Mia Paca-2 = experiment: WST-1 proliferation/survival assay, Mia Paca-2; assay type: cell-based, human; settings: for response of Mia Paca-2 cells to gemcitabine after pre-incubation with TKI: 10 μM imatinib or dasatinib, compared to masitinib; for IC50: Homo sapiens
Protocol: (§1) Sensitivity of pancreatic tumour cell lines to masitinib or gemcitabine as single agents, or in combination, was assessed using WST-1 proliferation assays. Four cell lines were tested for their sensitivity to masitinib (A) or gemcitabine (B). […] (D) Sensitivity of resistant Mia Paca-2 cells to various tyrosine kinase inhibitors alone (top) or in combination with gemcitabine (bottom) was analyzed in WST-1 proliferation assays.
(§2) Pancreatic cancer cells lines (Mia Paca-2, Panc-1, BxPC-3 and Capan-2) were obtained from Dr. Juan Iovanna (Inserm, France). Cells were maintained in RPMI (BxPC-3, Capan-2) or DMEM (Mia Paca-2, Panc-1) medium containing glutamax-1 (Lonza), supplemented with 100 U/ml penicillin/100 μg/ml streptomycin, and 10% foetal calf serum (FCS) (AbCys, Lot S02823S1800). Expression of tyrosine kinases was determined by RT-PCR using Hot Star Taq (Qiagen GmbH, Hilden, Germany) in a 2720 Thermal Cycler (Applied Biosystems).
(§3) Cytotoxicity of masitinib and gemcitabine was assessed using a WST-1 proliferation/survival assay (Roche diagnostic) in growth medium containing 1% FCS. Treatment was started with the addition of the respective drug. […] After 72 hours WST-1 reagent was added and incubated with the cells for 4 hours before absorbance measurement at 450 nm in an EL800 Universal Microplate Reader (Bio-Tek Instruments Inc.). Media alone was used as a blank and proliferation in the absence of compounds served as positive control. Results are representative of three/four experiments. The masitinib sensitisation index is the ratio of the IC50 of gemcitabine against the IC50 of the drug combination.
Comparison of masitinib to other TKIs for their potential to sensitize gemcitabine-resistant pancreatic cancer cells: Similar TKI plus gemcitabine combination experiments to those described above were performed with gemcitabine-resistant Mia Paca-2 cells to compare masitinib with imatinib (Gleevec™, STI-571; Novartis, Basel, Switzerland), a TKI targeting ABL, PDGFR, and c-Kit); and dasatinib (Sprycel, Bristol-Myers Squibb), a TKI targeting SRC, ABL, PDGFR, and c-Kit.

FAK = FAK (Homo sapiens, UniProt Q05397); experiment: FAK activity, preliminary in vitro data; assay type: biochemical
Sequence of FAK (Q05397 whole entry): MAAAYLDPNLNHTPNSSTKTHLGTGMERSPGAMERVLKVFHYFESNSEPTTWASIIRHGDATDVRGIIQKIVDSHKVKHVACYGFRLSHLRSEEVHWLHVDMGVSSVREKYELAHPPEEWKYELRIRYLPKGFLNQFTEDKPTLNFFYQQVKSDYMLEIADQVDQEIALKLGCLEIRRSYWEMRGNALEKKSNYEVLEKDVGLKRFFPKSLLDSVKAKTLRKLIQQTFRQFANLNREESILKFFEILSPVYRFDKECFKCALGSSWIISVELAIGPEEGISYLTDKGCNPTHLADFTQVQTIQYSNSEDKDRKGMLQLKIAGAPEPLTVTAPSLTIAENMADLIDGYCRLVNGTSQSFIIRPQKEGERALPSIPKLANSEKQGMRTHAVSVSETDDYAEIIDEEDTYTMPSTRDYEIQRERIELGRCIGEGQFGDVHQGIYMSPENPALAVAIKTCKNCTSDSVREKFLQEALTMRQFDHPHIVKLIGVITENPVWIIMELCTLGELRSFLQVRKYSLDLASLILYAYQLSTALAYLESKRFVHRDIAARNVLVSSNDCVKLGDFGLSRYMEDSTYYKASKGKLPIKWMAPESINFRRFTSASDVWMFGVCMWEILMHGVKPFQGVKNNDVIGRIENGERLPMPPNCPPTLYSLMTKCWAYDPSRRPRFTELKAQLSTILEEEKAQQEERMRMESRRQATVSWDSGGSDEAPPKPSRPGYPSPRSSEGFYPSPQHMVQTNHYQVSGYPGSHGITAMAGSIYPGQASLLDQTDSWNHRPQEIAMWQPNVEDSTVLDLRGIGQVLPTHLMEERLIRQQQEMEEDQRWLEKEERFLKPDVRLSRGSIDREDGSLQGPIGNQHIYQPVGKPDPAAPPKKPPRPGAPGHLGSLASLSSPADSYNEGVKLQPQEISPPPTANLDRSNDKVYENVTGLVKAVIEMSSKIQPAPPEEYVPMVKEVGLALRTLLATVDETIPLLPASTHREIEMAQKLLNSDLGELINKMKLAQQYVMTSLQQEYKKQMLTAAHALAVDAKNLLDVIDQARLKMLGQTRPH
Description: Altogether, this could provide a mechanism of action for masitinib on pancreatic cancer through the reduction of tumour progression or the inhibition of mast cell migration and activation, or both.

Mia Paca-2 cells [1] = experiment: In vitro tyrosine phosphorylation assay (western blot, anti-pTyr); assay type: cell-based, human; settings: 6 hours, at 1 μM and beyond
Protocol: (A) Messenger RNA expression of various receptor and cytoplasmic tyrosine kinases was analyzed by RT-PCR. Universal human reference total RNA was used as positive control for primers and the ubiquitous β-glucoronidase (GUS) served as an internal control for all RT-PCR reactions. (B) Tyrosine phosphorylation of proteins in response to masitinib. Mia Paca-2 cells (5×10^6) were treated for 6 hours at 37° C. with various concentrations of masitinib. Total cell lysates were prepared and tyrosine phosphorylation was analyzed by western blot with antibodies against phosphotyrosine (anti-pTyr). […] MW=molecular weight. […] Proteins (20 μg) were resolved by SDS-PAGE 10%, followed by western blotting and immunostaining. The following primary antibodies were used: rabbit anti-phospho-GRB2 antibody (sc-255 1:1000, Santa Cruz, Calif.), and anti-phosphotyrosine antibody (4G10 1:1000, Cell Signalling Technology, Ozyme, France). […] Immunoreactive bands were detected using enhanced chemiluminescent reagents (Pierce, USA). To estimate the range of masitinib concentration necessary to sensitize pancreatic tumor cell lines to chemotherapy, we assessed the ability of masitinib to block protein tyrosine phosphorylation by western blot analysis in cell lysates. […]

BxPC-3 = experiment: WST-1 proliferation/survival assay, BxPC-3; assay type: cell-based, human; settings: BxPC-3, single agent, 1% FCS
Protocol: as §1, §2
Cytotoxicity of masitinib and gemcitabine was assessed using a WST-1 proliferation/survival assay (Roche diagnostic) in growth medium containing 1% FCS. Treatment was started with the addition of the respective drug. […] After 72 hours WST-1 reagent was added and incubated with the cells for 4 hours before absorbance measurement at 450 nm in an EL800 Universal Microplate Reader (Bio-Tek Instruments Inc.). […]

Capan-2 = experiment: WST-1 proliferation/survival assay, Capan-2; assay type: cell-based, human; settings: Capan-2, single agent, 1% FCS
Protocol: as §1, §2, §3

Panc-1 = experiment: WST-1 proliferation/survival assay, Panc-1; assay type: cell-based; settings: Homo sapiens
Protocol: as §1, §2, §3

[2] = test system: Mia Paca-2 pancreatic tumours; experiment: Nog-SCID mouse model of human pancreatic cancer; assay type: in vivo, Nog-SCID mice; settings: for Tumour volume, Median: following 28 days of treatment (day 56)
Protocol: Mia Paca-2 tumour cells (10^7) were injected into the flank of Nog-SCID mice. Treatment was initiated 28 days after tumour cell injection. The different groups were treated with either: twice weekly injections of gemcitabine (i.p. 50 mg/kg), daily oral masitinib (100 mg/kg), water (control), or combined daily oral masitinib (100 mg/kg) and twice weekly injections of gemcitabine. Mice were treated for 56 days.
Male Nog-Scid mice (7 weeks old) were obtained from internal breeding and were housed under specific pathogen-free conditions at 20±1° C. in a 12-hour light/12-hour dark cycle and ad libitum access to food and filtered water. Mia Paca-2 cells were cultured as described above. At day 0 (D0), mice were injected with 107 Mia Paca-2 cells in 200 μl PBS into the right flank. Tumours were allowed to grow for 1.5 to 4 weeks until the desired tumour size was reached (˜200 mm3). At day 28, animals were allocated into four treatment groups (n=7 to 8 per group), ensuring that each group's mean body weight and tumour volume were well matched, and treatment was initiated for a duration of 4 to 5 weeks. Treatments consisted of either: a) daily sterile water for the control group, b) an intraperitoneal (i.p.) injection of 50 mg/kg gemcitabine twice a week, c) daily gavage with 100 mg/kg masitinib, or d) combined i.p injection of 50 mg/kg gemcitabine twice a week and daily gavage with 100 mg/kg masitinib. Tumour size was measured with callipers and tumour volume was estimated using the formula: volume=(length×width2)/2. The tumour growth inhibition ratio was calculated as (100)×(median tumour volume of treated group)/(median tumour volume of control group).
Relative changes in tumour volumes were compared between treatment groups using a variance analysis (ANOVA). Normality of relative changes in tumour volumes between day 28 and day 56 was first tested using the Shapiro-Wilk test of normality. […]
The tumour size was monitored every 7 days until day 56, after which time the animals were sacrificed.

Mia Paca-2 cells [3] = experiment: Gene expression profiling (Affymetrix U133 Plus 2.0 microarrays) and pathway analysis; assay type: cell-based, human; settings: for down-regulated genes / up-regulated genes: fold-change threshold of 2; for deregulated genes: fold-change threshold of 2, treated/untreated; for deregulated genes specific to the treatment: pathway analysis, Ingenuity
Protocol: Gene expression profiling of cell lines (from 2 μg RNA) was assessed using whole-genome Affymetrix U133 Plus 2.0 human oligonucleotide microarrays. Generation of expression matrices, data annotation, filtering and processing have been previously described [Giroux V et al., 2006 Clin Cancer Res 12: 235-241]. Microarray statistics and cluster analysis were performed by the Robust Multichip Average method in R using Bioconductor and using the Cluster and TreeView programs. Drug response signatures were generated by differential analysis, which compared the expression profile of each treated cell line with that of the untreated cell line by measuring the fold-change (treated/untreated) of each probe set. The lists of differential genes were interrogated using the Ingenuity Pathway Analysis software (Version 5.5.1-1002; Ingenuity Systems, Redwood City, Calif.) with a significance threshold for the corrected p-value<0.05. MIAME compliant array data can be accessed at (www.ebi.ac.uk/arrayexpress) using the accession number GSE17987.
Whole-genome clustering of the four cell samples sorted them into two opposite clusters (data not shown). The two treatment conditions with gemcitabine clustered together (left cluster), whereas cells treated with masitinib alone clustered with the untreated cells (right cluster). […] This was confirmed by the differential analysis of expression profile. […] These drug response expression signatures were characterised via pathway analysis using Ingenuity software. […] This pathway is involved in pancreatic development and re-activation of this signalling system has been implicated in pancreatic carcinoma with reported nuclear localisation of the downstream effector β-catenin. […] Three other pathways altered to a lesser extent included: ERK/MAPK Signalling, CDK5 Signalling, and PI3K/AKT Signalling (p=0.016, 0.025, 0.039, respectively).

[4] = Masitinib clearance half-life; settings: human, in vivo
Description: At the cut-off date for safety (17 Oct. 2008), all 22 patients enrolled had experienced at least one dose of masitinib. […] One patient reported a masitinib-related grade 4 neutropenia. The most common masitinib-related, haematological grade 3 AEs were anaemia (22.7%), lymphopenia (22.7%), neutropenia (18.2%) and leucopoenia (18.2%). The most common, masitinib-related, non-haematological grade 3 AE was asthenia (13.6% of patients). […] One patient's death was reported to be due to several AEs (two syncopes, severe abdominal pain, hypotension, grade 2 anemia, acute renal failure and respiratory distress syndrome) and was suspected to be related to masitinib at the time of occurrence. However, masitinib had been interrupted for 6 days before these fatal AEs occurred. […] Thus, the death of this patient is most unlikely related to masitinib. Four other deaths occurred during this study but none were suspected to be treatment related.

pancreatic cancer = settings: cited from earlier work
[5] = Mia Paca-2, single agent, 72 hours, 1% FCS, read-out: IC50
[6] = Panc-1, single agent, 72 hours, 1% FCS, read-out: IC50

SMILES: Cc1ccc(NC(=O)c2ccc(CN3CCN(C)CC3)cc2)cc1Nc1nccc(-c2cccnc2)n1 [imatinib]
- response of Mia Paca-2 cells to gemcitabine after pre-incubation with TKI (Mia Paca-2): did not result in an increased response
- Mia Paca-2 cell proliferation, TKI alone (Mia Paca-2; imatinib alone 10 μM): not inhibited

SMILES: Cc1nc(Nc2ncc(C(=O)Nc3c(C)cccc3Cl)s2)cc(N2CCN(CCO)CC2)n1 [dasatinib]
- cells remaining resistant (Mia Paca-2; Mia Paca-2, dasatinib alone >0.1 μM): < 50%

- FAK auto-activation (FAK): partially inhibits FAK auto-activation
- reduces FAK activity (FAK; masitinib 1 μM): 21%
- half-life [4]: 17 h
SMILES: Cc1ccc(NC(=O)c2ccc(CN3CCN(C)CC3)cc2)cc1Nc1nc(-c2cccnc2)cs1 [Masitinib, 4-(4-methylpiperazin-1-ylmethyl)-N-[4-methyl-3-(4-pyridin-3ylthiazol-2-ylamino)phenyl]benzamide]
- protein tyrosine phosphorylation (western blot) (Mia Paca-2 cells [1]): clearly inhibited tyrosine phosphorylation
- IC50 (BxPC-3; Homo sapiens, BXPC-3, 72 h): 5 to 10 µM
- IC50 (Capan-2; Homo sapiens, Capan-2, 72 h): 5 to 10 µM
- response of Mia Paca-2 cells to gemcitabine after pre-incubation with TKI (Mia Paca-2): able to restore sensitivity to gemcitabine
- IC50 (Mia Paca-2; [5]): 5 to 10 µM
- IC50 (Panc-1; [6]): 5 to 10 µM
- Tumour volume, Median [2]: 865 mm^3
- down-regulated genes (Mia Paca-2 cells [3]): 29 genes
- up-regulated genes (Mia Paca-2 cells [3]): 325 genes
- deregulated genes (Mia Paca-2 cells [3]): 354 genes
- deregulated genes specific to the treatment (Mia Paca-2 cells [3]): 201 genes

SMILES: Nc1ccn(C2OC(CO)C(O)C2(F)F)c(=O)n1 (centres unmarked) [Gemcitabine, 4-amino-1-[3,3-difluoro-4-hydroxy-5-(hydroxymethyl)tetrahydrofuran-2-yl]-1H-pyrimidin-2-one]
- IC50 (BxPC-3; 72 hours): 2 to 20 µM
- IC50 (Capan-2; 72 hours): 2 µM
- IC50 (Capan-2; Homo sapiens, Capan-2, 72 h): 2 to 20 µM
- IC50 (Mia Paca-2; Mia Paca-2, gemcitabine monotherapy, read-out: IC50 (resistance)): > 2500 µM
- IC50 (Mia Paca-2; [5]): > 10 µM
- IC50 (Panc-1; Panc-1, gemcitabine monotherapy, read-out: IC50 (resistance)): > 2500 µM
- IC50 (Panc-1; [6]): > 10 µM
- tumour growth between day 35 and 49 ([2]; FIG. 3): stabilization of tumour growth
- Tumour volume, Median [2]: 662* mm^3
- down-regulated genes (Mia Paca-2 cells [3]): 113 genes
- up-regulated genes (Mia Paca-2 cells [3]): 1048 genes
- deregulated genes (Mia Paca-2 cells [3]): 1161 genes
- deregulated genes specific to the treatment (Mia Paca-2 cells [3]): 818 genes
- medium TTP (pancreatic cancer; Burris et al. 1997, advanced pancreatic population (locally advanced and metastatic)): 2.33 months
- TTP threshold (pancreatic cancer; Storniolo et al. 1999, solely locally advanced patients): 4.1 months
- 1-year survival rate (pancreatic cancer; clinical trial of erlotinib plus gemcitabine versus gemcitabine monotherapy, p=0.023): 17%
- median OS (pancreatic cancer; clinical trial of erlotinib plus gemcitabine versus gemcitabine monotherapy): 5.91 months
- 12-month survival rates, published (pancreatic cancer; comparison): 21%
- median OS, published (pancreatic cancer; comparison): 6 months
- 1-year survival rate (pancreatic cancer; standard gemcitabine therapy): 21%
- median overall survival (OS) (pancreatic cancer; standard gemcitabine therapy, locally advanced, unresectable, or metastatic pancreatic adenocarcinoma): 6 months
